Test results as given in US6518318B1, “Stimulating transport of glucose into animal tissue by the administration of pinitol” (priority 1999, dated 2003).

Legend:
[1] = test system: L6 Myoblasts; assay: Glucose uptake (glucose transport) in cell culture; format: cell-based; conditions: for GLUCOSE TRANSPORT: Table 3, control 151
Experimental: Glucose transport was tested and measured in accordance with the protocol set forth in Amira Kip et al., Induction of Sugar Uptake Response to Insulin by Serum Depletion in Fusing L6 Myoblasts, American Journal of Physiology, Vol. 247, No. 3, Part 1 (September 1984), herein incorporated by reference, except that the cell culture was preincubated for only 2 hours and the cells treated with varying concentrations of pinitol, insulin or a combination thereof as set forth in Tables One through Three. The raw data, in terms of “counts per minute” as measured with a scintillation counter, is provided in Tables One and Two, while calculated data, in terms of “pmol min^−1 mg protein^−1,” is provided in Table Three.

[2] = test system: cells; assay: Glycogen formation (14-C glucose incorporation into ethanol-precipitable glycogen); format: cell-based
Experimental: The method for glycogen incorporation is similar to that of J. Berger and N. S. Hayes, Anal Biochem. 261: 159-163 (1998), one of several standard references for radiolabeled (14-C) glucose incorporation into ethanol-precipitable glycogen. Into each well was added 1.25 mil of 1% TritonX100. The wells were then placed on a rotating agitator for 30 minutes to dissolve the cells. A 1 ml sample was removed from each well and placed in a 10 ml plastic tube. Into each sample was added 1 ml of a solution containing 18% trichloroacetic acid and 2 mg/ml of glycogen (added as carrier). The treated samples were placed on ice for 20 minutes and then centrifuged for 10 minutes at 10,000 RPM with the supernatant transferred to new plastic tubes. The remaining solids were washed by adding 0.3 ml of the trichloracetic acid-glycogen solution to the pellet, and centrifuged again as before. The combined supernatants were added to 4 ml of ice cold ethanol and 0.25 ml of 2% sodium sulphate (to help precipitate glycogen, as in L. Y. Hung and L. A. Menahan, Biochemical Medicine, Vol. 24: 356-360 (1980)). This was left overnight at 4° C. The precipitate was collected the next day by centrilugation at 10,000 RPM for 10 min. The precipitate was redisolved in water (2 ml) and reprecipitated as before with ethanol and sodium sulphate. The precipitate was dissolved in water, added to scintillation fluid, and radioactivity determined.

[3] = Experiment Two, administered alone, at higher concentrations

## Insulin: insulin, used to treat the cells alone or with pinitol as comparison
[1]; [3]
  stimulation of glucose transport (conclusion): significant stimulation in glucose transport
[1]; Table 2, Insulin 10^−3 mM, control 3178
  COUNTS PER MINUTE (glucose uptake): 4477 counts per minute
[1]; Insulin 10^−5 mM
  GLUCOSE TRANSPORT: 200 pmol · min^−1 · mg protein^−1
[2]; Table 4, Insulin 10^−6 mM
  GLYCOGEN FORMATION 1st Set: 136.27 nmol/min/mg
  GLYCOGEN FORMATION 2nd Set: 96.14 nmol/min/mg
  GLYCOGEN FORMATION 3rd Set: 212.09 nmol/min/mg
[2]; Table 4, Insulin 10^−6 mM, control 52.44 ± 4.58
  GLYCOGEN FORMATION Average: 148.17 ± 58.89 nmol/min/mg
[2]; Table 4, Insulin 10^−8 mM
  GLYCOGEN FORMATION 1st Set: 68.45 nmol/min/mg
  GLYCOGEN FORMATION 2nd Set: 75.36 nmol/min/mg
[2]; Table 4, Insulin 10^−8 mM, control 52.44 ± 4.58
  GLYCOGEN FORMATION Average: 71.90 ± 4.89 nmol/min/mg
[2]; Table Five, Insulin 10^−7 M
  GLYCOGEN FORMATION 1st Set: 186.52 nmol/min/mg
  GLYCOGEN FORMATION 2nd Set: 179.88 nmol/min/mg
  GLYCOGEN FORMATION 3rd Set: 79.32 nmol/min/mg
  GLYCOGEN FORMATION 4th Set: 167.44 nmol/min/mg
  GLYCOGEN FORMATION 5th Set: 136.35 nmol/min/mg
[2]; Table Five, Insulin 10^−7 M, control 130.18 ± 20.87
  GLYCOGEN FORMATION Average: 149.90 ± 43.91 nmol/min/mg

## CO[C@H]1[C@H](O)[C@@H](O)[C@@H](O)[C@H](O)[C@@H]1O [Pinitol]
[1]; [3]
  stimulation of glucose transport (conclusion): significant stimulation in glucose transport
[1]; Table 1, Pinitol 0.14 mM, raw data, control 5185
  COUNTS PER MINUTE (glucose uptake): 5221 counts per minute
[1]; Table 1, Pinitol 1.44 mM, raw data, control 5185
  COUNTS PER MINUTE (glucose uptake): 6009 counts per minute
[1]; Table 2, Pinitol 1.0 mM, control 3178
  COUNTS PER MINUTE (glucose uptake): 6007 counts per minute
[1]; Pinitol 0.14 mM, calculated data
  GLUCOSE TRANSPORT: 155 pmol · min^−1 · mg protein^−1
[1]; alone, higher concentrations (e.g., 1.44 mM)
  stimulation of glucose transport (conclusion): significant stimulation in glucose transport
[1]; alone, low concentrations (e.g., 0.14 mM)
  stimulation of glucose transport (conclusion): does not meaningfully stimulate glucose transport
[2]; Table 4, Pinitol 1.4 mM
  GLYCOGEN FORMATION 1st Set: 68.36 nmol/min/mg
  GLYCOGEN FORMATION 2nd Set: 79.08 nmol/min/mg
  GLYCOGEN FORMATION 3rd Set: 64.37 nmol/min/mg
[2]; Table 4, Pinitol 1.4 mM, control 52.44 ± 4.58
  GLYCOGEN FORMATION Average: 70.60 ± 7.61 nmol/min/mg
[2]; Table 4, Pinitol 144.0 mM
  GLYCOGEN FORMATION 1st Set: 57.75 nmol/min/mg
  GLYCOGEN FORMATION 2nd Set: 83.14 nmol/min/mg
  GLYCOGEN FORMATION 3rd Set: 64.24 nmol/min/mg
[2]; Table 4, Pinitol 144.0 mM, control 52.44 ± 4.58
  GLYCOGEN FORMATION Average: 68.38 ± 13.19 nmol/min/mg
[2]; Table Five, Pinitol 1.4 mM
  GLYCOGEN FORMATION 1st Set: 102.40 nmol/min/mg
  GLYCOGEN FORMATION 2nd Set: 117.18 nmol/min/mg
  GLYCOGEN FORMATION 3rd Set: 183.05 nmol/min/mg
  GLYCOGEN FORMATION 4th Set: 113.15 nmol/min/mg
  GLYCOGEN FORMATION 5th Set: 124.64 nmol/min/mg
  GLYCOGEN FORMATION 6th Set: 158.40 nmol/min/mg
[2]; Table Five, Pinitol 1.4 mM, control 130.18 ± 20.87
  GLYCOGEN FORMATION Average: 133.14 ± 30.99 nmol/min/mg
[2]; Table Five, Pinitol 144 mM
  GLYCOGEN FORMATION 1st Set: 123.03 nmol/min/mg
  GLYCOGEN FORMATION 2nd Set: 211.04 nmol/min/mg
  GLYCOGEN FORMATION 3rd Set: 146.53 nmol/min/mg
  GLYCOGEN FORMATION 4th Set: 192.74 nmol/min/mg
  GLYCOGEN FORMATION 5th Set: 97.05 nmol/min/mg
  GLYCOGEN FORMATION 6th Set: 199.85 nmol/min/mg
[2]; Table Five, Pinitol 144 mM, control 130.18 ± 20.87
  GLYCOGEN FORMATION Average: 161.71 ± 46.39 nmol/min/mg
[2]; administered alone
  stimulation of glycogen formation (conclusion): significant stimulation in glycogen formation
